# Where two headings read alike, the source gives them in different places.
# What was measured:
# [1] = Solubility in aqueous medium buffered to physiological pH (phosphate 0.33M, pH 7.4); assay type: physicochemical
# Procedure: The solubilities of the compounds were also measured in a medium buffered to physiological pH (cf. Table 3).
# [2] = Pharmacokinetic profile / in vivo conversion after oral administration to SCID mice (plasma, LC-MS/MS); set-up: species or system female SCID mice; conditions: aqueous formulation (1M sodium carbonate)
# Procedure: The pharmacokinetic profile of the phosphate compounds of formula (I) is evaluated in a lipid formulation and in aqueous solution in female SCID mice. This is compared to the pharmacokinetic profile of compounds of formula (I′) in a lipid formulation. More specifically, 4-[{[3-(6-{[(3S)-3-(morpholin-4-ylmethyl)-3,4-dihydroisoquinolin-2(1H)-yl]-carbonyl}-1,3-benzodioxol-5-yl)-5,6,7,8-tetrahydroindolizin-1-yl]carbonyl}(phenyl)-amino]phenyl disodium phosphate (also referred to as the compound of Example 1) was tested and compared to N-(4-hydroxyphenyl)-3-{6-[((3S)-3-(4-morpholinylmethyl)-3,4-dihydro-2(1H)-isoquinolinyl)carbonyl]-1,3-benzodioxol-5-yl}-N-phenyl-5,6,7,8-tetrahydro-1-indolizine carboxamide (also referred to as the drug from Example 1).
# The compound of Example 1 is prepared in a mixture of anhydrous ethanol/polyethylene glycol 300/water (10/40/50, v/v/v) intended for administration by the p.o. route. The study is carried out in 2 groups of SCID mice to which the compound of Example 1 is administered under the following conditions: • Group 1: 3 mg/kg p.o. (gavage, 10 mL/kg), • Group 2: 25 mg/kg p.o. (gavage, 10 mL/kg).
# Blood samples are taken at the following points in time (3 samples per animal and 3 animals for each point in time): 0.25 hr, 0.5 hr, 1 hr, 2 hrs, 6 hrs and 24 hrs after oral administration.
# The compound of Example 1 is also administered by the oral route in an aqueous medium to SCID mice, under the following conditions: • Group 1: 30 mg/kg p.o. dissolved in 1 mM sodium carbonate solution (gavage, 10 mL/kg), • Group 2: 100 mg/kg p.o. in water (gavage, 10 mL/kg).
# Blood samples are taken at the following points in time (3 animals for each point in time and 1 sample per animal): 0.25 hr, 0.5 hr, 1 hr, 2 hrs, 4 hrs, 6 hrs and 24 hrs after oral administration.
# For all formulations of the compound of Example 1, the blood thereby collected is centrifuged and the plasma is transferred to tubes containing 1M hydrochloric acid. The plasma concentrations of the phosphate compound (prodrug) and its hydroxylated homologue (drug) are determined simultaneously using a method of liquid chromatography coupled with mass spectrometric detection (TFC-LC-MS/MS). The limit of detection for both entities is 0.5 ng/mL.
# The drug from Example 1 is prepared in a mixture of anhydrous ethanol/polyethylene glycol 300/water (10/40/50, v/v/v) intended for administration by the p.o. route. The study is carried out in several groups of SCID mice to which the drug from Example 1 is administered under the following conditions: • Group 1: 3 mg/kg p.o. (gavage, 10 mL/kg), • Group 2: 30 mg/kg p.o. (gavage, 10 mL/kg), • Group 3: 25 mg/kg p.o. (gavage, 10 mL/kg), • Group 4: 100 mg/kg p.o. (gavage, 10 mL/kg).
# Blood samples are taken at the following points in time (3 animals for each point in time and 3 samples per animal for Groups 1-2 and 1 sample per animal for Groups 3 and 4): • p.o.: before administration and then 0.25 hr, 0.5 hr, 0.75 hr, 1 hr, 2 hrs, 4 hrs, 6 hrs, 8 hrs, 16 hrs and 24 hrs after oral administration at 3 and 30 mg/kg, • p.o.: 0.5 hr, 2 hrs, 6 hrs, 16 hrs and 24 hrs after oral administration at 25 mg/kg and 0.5 hr, 1 hr, 2 hrs, 6 hrs, 16 hrs, 30 hrs and 48 hrs after oral administration at 100 mg/kg.
# The plasma from the blood samples collected after administration of the lipid formulations of the drug from the compound of Example 1 are analysed by liquid chromatography coupled with mass spectrometric detection. The limit of quantification of the drug from the compound of Example 1 is less than or equal to 0.5 ng/mL.
# Non-compartmental pharmacokinetic analysis is carried out on the mean values of the plasma concentrations of the compounds tested. […]
# human Caco-2 cells = assay: In vitro test on human Caco-2 cells, cellular transport A to B; assay type: in vitro ADME; conditions: prodrug incubated, 120 minutes; for Yield (experiment yield), the drug after incubation of the prodrug / Fabs (predicted absorbed fraction in humans), the drug after incubation of the prodrug: corresponding drug measured; for Fabs (predicted absorbed fraction in humans), the drug after incubation of the prodrug / Papp, compound measured: the prodrug itself: A to B; for Fabs (predicted absorbed fraction in humans), the drug after incubation of the prodrug: 1 or 3 μM; for Yield (experiment yield), compound measured: the prodrug itself: total amount found at the end versus incubated; for Papp, compound measured: the prodrug itself: deposited apically at 1 or 3 μM
# Procedure: The cellular transport from A to B (Apical to Basolateral) of the phosphate compounds of formula (I) and the compounds of formula (I′) (corresponding drugs) is studied in human Caco-2 cells. Each compound is deposited apically at 1 or 3 μM (in duplicate) and then incubated for 120 minutes.
# Several samples are taken during the experiment; • apically: immediately after deposition (t=0) and at 120 minutes • basolaterally: at the end of the experiment (120 minutes)
# The concentrations of the phosphate compound (prodrug) and/or of its hydroxylated homologue (drug) are determined by liquid chromatography coupled with mass spectrometric detection (LC-MS/MS). The limit of quantification for both entities is 2 ng/mL.
# The apparent permeability (Papp) and the predicted absorbed fraction (Fabs) in humans are calculated for the prodrug, for the drug after incubation of the prodrug and for the drug after incubation of the drug (Hubatsch et al, Nat Protoc. 2007; 2(9), 2111-2119).
# The experiment yield, which corresponds to the ratio (in percent) of the total amount of compound found at the end of the experiment versus that incubated, is also calculated.
# [3] = phosphate 0.33M, pH = 7.4, 10 μM
# [4] = phosphate 0.33M, pH = 7.4, 20 μM
# [5] = phosphate 0.33M, pH = 7.4, 50 μM
# [6] = phosphate 0.33M, pH = 7.4, 100 μM
# [7] = Example 20 administered 25 mg/kg p.o.
# [8] = Example 25 administered 3 mg/kg p.o.
# [9] = Example 25 administered 25 mg/kg p.o.
Structure (SMILES),"Solubility at 10 μM [1, 3]","Solubility at 20 μM [1, 4]","Solubility at 50 μM [1, 5]","Solubility at 100 μM [1, 6]","Yield (experiment yield), the drug after incubation of the prodrug (human Caco-2 cells)","Fabs (predicted absorbed fraction in humans), the drug after incubation of the prodrug (human Caco-2 cells)","Yield (experiment yield), compound measured: the prodrug itself (human Caco-2 cells)","Papp, compound measured: the prodrug itself (human Caco-2 cells)",also measured
"Cc1c(N(C(=O)c2cc(-c3cc(Cl)ccc3C(=O)N3Cc4ccccc4C[C@H]3CN3CCOCC3)n(C)c2C)c2ccc(OP(=O)([O-])[O-])cc2)cc(C#N)n1C.[Na+].[Na+] [Example 20, 4-[{[5-(5-Chloro-2-{[(3S)-3-(morpholin-4-ylmethyl)-3,4-dihydroisoquinolin-2(1H)-yl]carbonyl}phenyl)-1,2-dimethyl-1H-pyrrol-3-yl]carbonyl}(5-cyano-1,2-dimethyl-1H-pyrrol-3-yl)amino]phenyl disodium phosphate]",Soluble,Soluble,Soluble,Soluble,Yield (%) = 100,Fabs (%) = 16,Yield (%) = 0.94,,"Cmax, compound measured: Example 20 ([2]; Example 20 administered 3 mg/kg p.o., BLQ: below the limit of quantification): Cmax (ng/mL) = BLQ; AUCt, compound measured: Example 20 [2, 7]: AUCt (ng · h/mL) = 106; Cmax, compound measured: Example 20 [2, 7]: Cmax (ng/mL) = 127; Tmax, compound measured: Example 20 [2, 7]: Tmax (h) = 0.25"
"C[C@@H]1Cc2ccccc2CN1C(=O)c1cc2c(cc1-c1cc(C(=O)N(c3ccncc3)c3ccc(OP(=O)([O-])[O-])cc3)c3ccccn13)OCO2.[Na+].[Na+] [Example 5, 4-[{[3-(6-{[(3R)-3-Methyl-3,4-dihydroisoquinolin-2(1H)-yl]carbonyl}-1,3-benzodioxol-5-yl)indolizin-1-yl]carbonyl}(pyridin-4-yl)amino]phenyl disodium phosphate]",,,,,Yield (%) = 78,Fabs (%) = 86,Yield (%) = 1.2,Papp (10^−6 cm/s) = 0.26,
"[2H]C([2H])([2H])n1cc(N(C(=O)c2cc(-c3cc(Cl)ccc3C(=O)N3Cc4ccccc4C[C@H]3CN3CCOCC3)n(C)c2C)c2ccc(OP(=O)([O-])[O-])cc2)cn1.[Na+].[Na+] [Example 19, 4-({[5-(5-Chloro-2-{[(3S)-3-(morpholin-4-ylmethyl)-3,4-dihydroisoquinolin-2(1H)-yl]carbonyl}phenyl)-1,2-dimethyl-1H-pyrrol-3-yl]carbonyl}[1-(trideuteriomethyl)-1H-pyrazol-4-yl]amino)phenyl disodium phosphate]",,,,,,,,,Solubility at 10 μM [1]: Soluble; Solubility at 20 μM [1]: Soluble; Solubility at 50 μM [1]: Soluble; Solubility at 100 μM [1]: Soluble
"Cc1c(N(C(=O)c2cc(-c3cc(F)ccc3C(=O)N3Cc4ccccc4C[C@H]3CN3CCOCC3)n(C)c2C)c2ccc(OP(=O)([O-])[O-])cc2)cc(C#N)n1C.[Na+].[Na+] [Example 25, 4-[(5-Cyano-1,2-dimethyl-1H-pyrrol-3-yl){[5-(5-fluoro-2-{[(3S)-3-(morpholin-4-ylmethyl)-3,4-dihydroisoquinolin-2(1H)-yl]carbonyl}phenyl)-1,2-dimethyl-1H-pyrrol-3-yl]carbonyl}amino]phenyl disodium phosphate]",Soluble,Soluble,Soluble,Soluble,Yield (%) = 48,Fabs (%) = 20,Yield (%) = 33,,"AUCt, compound measured: Example 25 [2, 8]: AUCt (ng · h/mL) = 14; Cmax, compound measured: Example 25 [2, 8]: Cmax (ng/mL) = 17; Tmax, compound measured: Example 25 [2, 8]: Tmax (h) = 1.0; AUCt, compound measured: Example 25 [2, 9]: AUCt (ng · h/mL) = 114; Cmax, compound measured: Example 25 [2, 9]: Cmax (ng/mL) = 106; Tmax, compound measured: Example 25 [2, 9]: Tmax (h) = 1.0"
"C[C@@H]1Cc2ccccc2CN1C(=O)c1cc2c(cc1-c1cc(C(=O)N(c3ccc(OP(=O)([O-])[O-])cc3)c3cnc4c(ccn4C)c3)c3ccccn13)OCO2.[Na+].[Na+] [Example 4, 4-[{[3-(6-{[(3R)-3-Methyl-3,4-dihydroisoquinolin-2(1H)-yl]carbonyl}-1,3-benzodioxol-5-yl)indolizin-1-yl]carbonyl}(1-methyl-1H-pyrrolo[2,3-b]pyridin-5-yl)amino]phenyl disodium phosphate]",,,,,Yield (%) = 38,Fabs (%) = 69,Yield (%) = 1.3,Papp (10^−6 cm/s) = 0.33,
"[2H]C([2H])([2H])n1cc(N(C(=O)c2cc(-c3cc(Cl)ccc3C(=O)N3Cc4ccccc4C[C@H]3CN3CCOCC3)n(C)c2C)c2ccc(O)cc2)cn1 [Drug from Example 19, 5-(5-Chloro-2-{[(3S)-3-(morpholin-4-ylmethyl)-3,4-dihydroisoquinolin-2(1H)-yl]carbonyl}phenyl)-N-(4-hydroxyphenyl)-1,2-dimethyl-N-[1-(trideuteriomethyl)-1H-pyrazol-4-yl]-1H-pyrrole-3-carboxamide]",Soluble,Soluble,Soluble,Insoluble,,,,,
